Measurements as given in US20170340905A1, “MACROCYCLIC KETONE AS MALODOR COUNTERACTING INGREDIENT” (Firmenich SA, priority 2014, published 2017).
In brackets after ≈: the same amount, converted by molar mass. Marks after values point to notes of the source that are not given here.

Experiments:
[1] = system: Streptococcus agalactiae URI3; test: MIC test in 96 well plates; type: cell-based; settings: S. agalactiae, associated with urine/bathroom
Experimental: (§1) Bacterial solutions of four bacterial strains were prepared for MIC test as follows. Stock cultures stored at -80° C. were subcultured onto agar plate media, and incubated at 37° C. for 24 h to obtain single colonies. Single colonies of the primary cultures were inoculated into broth media and incubated at 37° C., 160 rpm overnight. Aliquots of overnight cultures were inoculated into 50 ml of fresh broth media, and incubated at 37° C., 160 rpm. When the OD reached the target value for each strain (see Table 1), cells were harvested by centrifugation at 5000 rpm for 10 min, and then resuspended in the same fresh broth media at the same volume before the centrifugation. Aliquots (1.1 ml) of each cell suspension were diluted in 200 ml of the same broth media as the bacterial solutions for the MIC test. [table] Sample solutions of casmirone and reference material ([…]) were prepared as follows. Stock solutions of 1% and 20% were prepared in ethanol, and then seven serial dilutions of each stock solution were prepared in ethanol to obtain a total of 16 solutions of casmirone or the reference material. Aliquot (10 μl) of each solution was used for MIC test. The tested final concentrations of each material were 29, 44, 66, 99, 148, 222, 333, 500, 590, 900, 1300, 2000, 3000, 4500, 6700, 10000 ppm. The test material control was trans-hexenal, a known material for MIC tests and control tests (e.g. see Int J Food Microbiol. 2010 January 1;136(3):304-9). MIC test were performed in 96 well plates. […] Column 1 contained bacterial solution only (the positive growth control), and column 12 contained growth media only (the negative growth control). Aliquots (10 μl) of sample solutions were mixed with 190 μl of bacterial solutions in growth media, at concentrations of 10^5 to 10^6 cfu/ml, in wells of the 96 well plates. Three replicates for solution. The 96 wells plates were incubated at 37° C., 160 rpm overnight. After incubation, wells of 96 well plates were examined. Turbid wells were regarded as an indication of microbial growth. Minimal inhibition concentration (MIC) was determined as the lowest concentration where no growth was observed. Average MIC value of the three replicates was calculated against each strain (see Table 3).

[2] = system: Staphylococcus aureus DSMZ 1104; test: MIC test in 96 well plates; type: cell-based; settings: S. aureus, associated with hygiene
Experimental: as §1

[3] = system: Morganella morganii URI62; test: MIC test in 96 well plates; type: cell-based; settings: M. morganii, associated with urine/bathroom
Experimental: as §1

[4] = system: Staphylococcus haemolyticus ATCC 114126; test: MIC test in 96 well plates; type: cell-based; settings: S. haemolyticus, associated with body odor
Experimental: as §1

[5] = Sensory malodor reduction test, Sniffin' Sticks odor pens, body malodor; settings: for Average Perceived Malodor Intensity (APMI) / Average Perceived Overall Odor Intensity (APOOI): scale 0-10
Experimental: (§2) The Compound 1, as defined above, was tested, using current sensory analysis methods, for its ability to reduce the perception of bathroom, tobacco, kitchen, pet and body malodors.
(§3) In the following description, the test concentration of the malodor sample used in each case was selected so as to provide a perceived malodor intensity, when evaluated in Sniffin' Sticks odor pens as described below, that was approximately of the order of 6 units on the scale described under Section C below.
Body malodor: 0.5% by weight in propylene glycol
(§4) The test concentration of the Compound 1 used in each of the malodor reduction tests was selected so as to provide a perceived intensity, when evaluated in Sniffin' Sticks odor pens as described below, that was approximately of the order of 6 units on the scale described under Section C below. The concentration of Compound 1 that was perceived as comprising an odor intensity of about 6 when evaluated in Sniffin' Sticks odor pens was 16% by weight in propylene glycol.
(§5) Stock solutions were prepared as follows: • Compound 1 32% by weight: 12.8 g of Compound 1 was mixed with 27.2 g of propylene glycol. • Bathroom malodor 0.6% by weight: 0.6 g of bathroom malodor was mixed with 99.4 g of propylene glycol. • Kitchen malodor 60% by weight: 12.0 g of kitchen malodor was mixed with 8.0 g of propylene glycol. • Body malodor 1% by weight: 1.0 g of body malodor was mixed with 99.0 g of propylene glycol. • Pet malodor 1% by weight: 1.0 g of pet malodor was mixed with 99.0 g of propylene glycol. • The tobacco malodor was used as is.
(§6) Each sensory test comprised 3 samples: a malodor only sample; a test sample comprising a combination of […] and the test malodor; and, a Compound 1 only sample. The samples for the sensory tests were prepared as follows:
(§7) Malodor only sample: in a separate beaker 3.0 g of malodor stock solution, was mixed with 3.0 g of propylene glycol. Once fully homogenized, 2.0 g of the resulting solution was applied to the absorbent fiber in the body of a Sniffin' Stick odor pen (origin: Burghart Messtechnik GmbH). The odor pen was immediately capped and allowed to equilibrate for 24 hours before use.
(§8) Compound 1 only sample: in a separate beaker 3.0 g of Compound 1 stock solution was mixed with 3.0 g of propylene glycol. Once fully homogenized, 2.0 g of the resulting solution was applied to the absorbent fiber in the body of a Sniffin' Stick odor pen (origin: Burghart Messtechnik GmbH). The odor pen was immediately capped and allowed to equilibrate for 24 hours before use.
(§9) Test samples: in a separate beaker 3.0 g of Compound 1 stock solution was mixed with 3.0 g of malodor stock solution. Once fully homogenized, 2.0 g of the resulting solution was applied to the absorbent fiber in the body of a Sniffin' Stick odor pen (origin: Burghart Messtechnik GmbH). The odor pen was immediately capped and allowed to equilibrate for 24 hours before use.
(§10) The samples were assessed by a panel of 19 trained panelists. By “trained panelists” we mean here individuals that had previously been screened for olfactive acuity and were experienced in rating the perfume and malodor intensity. Moreover, the panelists were prior acquainted with the malodor sample before carrying out the malodor reduction efficacy test.
(§11) Each test comprised a malodor only sample, a Compound 1 only sample, and a test sample that comprised Compound 1 and the malodor. […]

[6] = Sensory malodor reduction test, Sniffin' Sticks odor pens, bathroom malodor; settings: for Average Perceived Overall Odor Intensity (APOOI) / Average Perceived Malodor Intensity (APMI): scale 0-10
Experimental: as §2, §3
Bathroom malodor: 0.3% by weight in propylene glycol
as §4, §5, §6, §7, §8, §9, §10, §11

[7] = Sensory malodor reduction test, Sniffin' Sticks odor pens, tobacco malodor; settings: for Average Perceived Malodor Intensity (APMI) / Average Perceived Overall Odor Intensity (APOOI): scale 0-10
Experimental: as §2
The tobacco malodor was prepared by extraction of cigarette debris, comprising: ash; filter; and, paper. The debris from 30 smoked Marlboro lied cigarettes (origin: Philip Morris International) was collected in a 500 ml glass powder jar with a screw closure. 300 ml of ethanol was added. The combination was mixed in a Turbula mixer for 8 hours and then filtered through a Whatman Grade 4 filter paper. The filtrate was used as the tobacco malodor.
as §3
Tobacco malodor: 50% by weight in propylene glycol
as §4, §5, §6, §7, §8, §9
The samples were assessed by a panel of 19 trained panelists. […]

[8] = Sensory malodor reduction test, Sniffin' Sticks odor pens, kitchen malodor; settings: for Average Perceived Malodor Intensity (APMI) / Average Perceived Overall Odor Intensity (APOOI): scale 0-10
Experimental: as §2, §3
Kitchen malodor: 30% by weight in propylene glycol
as §4, §5, §6, §7, §8, §9, §10, §11

[9] = Sensory malodor reduction test, Sniffin' Sticks odor pens, pet malodor; settings: for Average Perceived Malodor Intensity (APMI) / Average Perceived Overall Odor Intensity (APOOI): scale 0-10
Experimental: as §2, §3
Pet malodor: 0.5% by weight, in propylene glycol
as §4, §5, §6, §7, §8, §9, §10, §11

[10] = Compound 1 + Malodor vs Malodor Only
[11] = Compound 1 + Malodor: 0.01 g body malodor, 0.32 g Compound 1, 1.67 g propylene glycol
[12] = Compound 1 Only: 0.32 g Compound 1, 1.68 g propylene glycol, body malodor test
[13] = Compound 1 Only: 0.320 g Compound 1, 1.680 g propylene glycol, bathroom malodor test
[14] = Compound 1 + Malodor: 1.00 g tobacco malodor, 0.32 g Compound 1, 0.68 g propylene glycol
[15] = Compound 1 Only: 0.32 g Compound 1, 1.68 g propylene glycol, tobacco malodor test
[16] = Compound 1 + Malodor: 0.60 g kitchen malodor, 0.32 g Compound 1, 1.08 g propylene glycol
[17] = Compound 1 Only: 0.32 g Compound 1, 1.68 g propylene glycol, kitchen malodor test
[18] = Compound 1 + Malodor: 0.01 g pet malodor, 0.32 g Compound 1, 1.67 g propylene glycol
[19] = Compound 1 Only: 0.32 g Compound 1, 1.68 g propylene glycol, pet malodor test

O=C1CCC=CCCC=CCCC1 [Compound 1, 4,8-cyclododecadien-1-one]
activity in application [1]: (compound 1 is moderately active in application) | MIC ([1]; Streptococcus agalactiae, URI3, average of three replicates, 37° C. overnight): 3430 µg/mL (≈ 19.3 mM) | activity in application [2]: (compound 1 is efficiently active in application) | MIC ([2]; Staphylococcus aureus, DSMZ1104, average of three replicates, 37° C. overnight): 333 µg/mL (≈ 1.87 mM) | activity in application [3]: (compound 1 is efficiently active in application) | MIC ([3]; Morganella morganii, URI62, average of three replicates, 37° C. overnight): 900 µg/mL (≈ 5.05 mM) | activity in application [4]: (compound 1 is efficiently active in application) | MIC ([4]; Staphylococcus haemolyticus, ATCC114126, average of three replicates, 37° C. overnight): 345 µg/mL (≈ 1.94 mM) | reducing the perceived intensity of body malodor [5, 10]: efficient | Average Perceived Malodor Intensity (APMI) [5, 11]: 2.78 * | Average Perceived Overall Odor Intensity (APOOI) [5, 11]: 5.61 | Average Perceived Malodor Intensity (APMI) [5, 12]: 0.83 * | Average Perceived Overall Odor Intensity (APOOI) [5, 12]: 6.39 | reducing the perceived intensity of bathroom malodor [6, 10]: efficient | Average Perceived Overall Odor Intensity (APOOI) ([6]; Compound 1 + Malodor: 0.006 g bathroom malodor, 0.320 g Compound 1, 1.674 g propylene glycol): 5.99 | Average Perceived Malodor Intensity (APMI) ([6]; Compound 1 + Malodor: 0.006 g bathroom malodor, 0.320 g Compound 1, 1.674 g propylene glycol, 19 panelists): 1.61 * | Average Perceived Malodor Intensity (APMI) [6, 13]: 0.91 * | Average Perceived Overall Odor Intensity (APOOI) [6, 13]: 5.75 | reducing the perceived intensity of tobacco malodor [7, 10]: efficient | Average Perceived Malodor Intensity (APMI) [7, 14]: 3.35 * | Average Perceived Overall Odor Intensity (APOOI) [7, 14]: 5.85 | Average Perceived Malodor Intensity (APMI) [7, 15]: 1.27 * | Average Perceived Overall Odor Intensity (APOOI) [7, 15]: 6.07 | reducing the perceived intensity of kitchen malodor [8, 10]: efficient | Average Perceived Malodor Intensity (APMI) [8, 16]: 2.49 * | Average Perceived Overall Odor Intensity (APOOI) [8, 16]: 5.51 | Average Perceived Malodor Intensity (APMI) [8, 17]: 0.95 * | Average Perceived Overall Odor Intensity (APOOI) [8, 17]: 5.78 | reducing the perceived intensity of pet malodor [9, 10]: efficient | Average Perceived Malodor Intensity (APMI) [9, 18]: 4.84 * | Average Perceived Overall Odor Intensity (APOOI) [9, 18]: 6.70 | Average Perceived Malodor Intensity (APMI) [9, 19]: 0.93 * | Average Perceived Overall Odor Intensity (APOOI) [9, 19]: 6.01
